# Source: patent US20040142317A1, “Use of amino acid transporter atbo,+ as a delivery system for drugs and prodrugs” (priority 2003, published 2004)
# T1: mouse ATB^0,+ (Mus musculus, UniProt Q9JMA9)
# T1 sequence (Q9JMA9 1-638): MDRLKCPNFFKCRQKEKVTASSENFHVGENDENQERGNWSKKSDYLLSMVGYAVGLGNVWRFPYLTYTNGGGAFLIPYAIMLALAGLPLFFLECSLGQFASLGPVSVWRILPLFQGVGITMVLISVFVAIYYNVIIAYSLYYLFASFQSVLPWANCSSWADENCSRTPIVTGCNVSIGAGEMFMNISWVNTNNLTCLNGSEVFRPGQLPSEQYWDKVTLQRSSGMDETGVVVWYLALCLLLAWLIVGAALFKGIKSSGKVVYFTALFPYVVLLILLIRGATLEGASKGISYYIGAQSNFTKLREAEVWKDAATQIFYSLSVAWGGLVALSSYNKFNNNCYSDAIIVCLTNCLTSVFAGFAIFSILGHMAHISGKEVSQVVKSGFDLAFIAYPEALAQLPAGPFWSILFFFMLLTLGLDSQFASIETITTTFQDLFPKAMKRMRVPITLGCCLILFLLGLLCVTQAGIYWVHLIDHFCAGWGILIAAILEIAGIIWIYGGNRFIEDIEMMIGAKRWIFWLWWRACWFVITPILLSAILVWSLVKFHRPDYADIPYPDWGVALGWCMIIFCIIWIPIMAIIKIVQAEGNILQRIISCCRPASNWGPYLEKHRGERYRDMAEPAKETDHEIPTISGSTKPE
# T2: OCTN2 (Homo sapiens, UniProt O76082)
# T2 sequence (O76082 1-557): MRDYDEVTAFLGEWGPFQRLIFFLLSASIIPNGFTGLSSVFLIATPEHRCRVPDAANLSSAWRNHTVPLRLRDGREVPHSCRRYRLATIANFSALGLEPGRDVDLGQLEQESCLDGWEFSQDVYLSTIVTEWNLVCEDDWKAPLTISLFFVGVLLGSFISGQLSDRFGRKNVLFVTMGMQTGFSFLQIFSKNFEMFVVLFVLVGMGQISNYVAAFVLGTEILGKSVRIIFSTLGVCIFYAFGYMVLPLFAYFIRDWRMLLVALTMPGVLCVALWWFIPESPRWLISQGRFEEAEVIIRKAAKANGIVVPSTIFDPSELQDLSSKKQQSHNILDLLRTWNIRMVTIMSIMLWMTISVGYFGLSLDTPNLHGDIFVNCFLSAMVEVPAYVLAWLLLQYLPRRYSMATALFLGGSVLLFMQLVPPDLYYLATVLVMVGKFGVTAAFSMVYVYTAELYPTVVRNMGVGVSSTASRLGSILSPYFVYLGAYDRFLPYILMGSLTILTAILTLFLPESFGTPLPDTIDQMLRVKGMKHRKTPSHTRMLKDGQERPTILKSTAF
# T3: ATB^0 (Homo sapiens, UniProt Q15758)
# T3 sequence (Q15758 1-541): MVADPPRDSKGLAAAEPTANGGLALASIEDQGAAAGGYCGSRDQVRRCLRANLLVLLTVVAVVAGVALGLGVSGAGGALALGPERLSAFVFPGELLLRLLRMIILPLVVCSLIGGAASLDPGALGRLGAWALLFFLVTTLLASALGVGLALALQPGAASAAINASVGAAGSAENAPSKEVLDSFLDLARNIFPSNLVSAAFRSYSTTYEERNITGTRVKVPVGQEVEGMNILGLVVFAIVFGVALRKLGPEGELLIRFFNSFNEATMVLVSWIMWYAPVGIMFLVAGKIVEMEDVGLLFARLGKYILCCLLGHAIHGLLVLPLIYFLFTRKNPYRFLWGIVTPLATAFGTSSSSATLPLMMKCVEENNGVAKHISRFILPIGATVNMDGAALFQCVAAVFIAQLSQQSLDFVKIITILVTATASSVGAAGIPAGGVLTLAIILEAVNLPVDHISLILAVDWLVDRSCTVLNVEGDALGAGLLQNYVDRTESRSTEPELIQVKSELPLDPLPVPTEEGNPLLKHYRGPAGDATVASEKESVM
# B1: mouse ATB^0,+ (Mus musculus) (protein)
# chain: T1 sequence (Q9JMA9 1-638)
# Key:
# mouse ATB^0,+ [1] = target: T1, mouse ATB^0,+; assay: Transport of radiolabeled substrates in HRPE cells expressing cloned mouse ATB0,+; type: cell-based
# mouse ATB^0,+ [2] = target: T1, mouse ATB^0,+
# OCTN2 = target: T2, OCTN2; conditions: literature values; cited from earlier work
# mouse ATB^0,+ [3] = target: T1, mouse ATB^0,+; remark: listed apart in the source
# mouse ATB^0,+ [4] = target: T1, mouse ATB^0,+; remark: listed apart in the source
# mouse ATB^0,+ [5] = target: T1, mouse ATB^0,+; assay: cell-based
# ATB^0 = target: T3, ATB^0; assay: cell-based
# ATB^0,+ mRNA = assay: ATB0,+ mRNA levels in mouse intestine after bacterial lipopolysaccharide injection (semi-quantitative RT-PCR); type: in vivo; conditions: 5 mg/kg i.p., 16 h; GAPDH as internal control
# Experimental: Mice were injected i.p. with either saline (control) or bacterial lipopolysaccharide (5 mg/kg body wt). 16 h following injection, mice were killed and the various segments of the intestine (J, jejunum; L, ileum; C, colon) were collected for mRNA isolation. Five-week-old IL2^+/+ and IL2^−/− mice were killed and the various segments of the intestine were collected for mRNA isolation. Semiquantitative RT-PCR with low number of PCR cycles was carried out with primer pairs specific for mouse ATB^0,+, mouse glyceraldehyde-3-phosphate dehydrogenase (GAPDH), and mouse cyclophilin C (CypC) and the RT-PCR products were detected by Southern hybridization and the signals were quantified.
# Since D-serine is an important modulator of glutamatergic neurotransmission and other D-amino acids may also have significant biological effects, it is of clinical relevance to know if there are any pathological conditions in which the intestinal absorption of D-amino acids may be altered. Therefore, the present inventors assessed the expression of ATB^0,+ in the intestinal tract under inflammatory conditions that are known to affect intestinal function. The present inventors used two different animal models for this purpose. […] The steady-state levels of ATB^0,+ mRNA were examined by a semi-quantitative RT-PCR in the jejunum, ileum, and colon. […]
# [6] = substrate: N=C(NCCC[C@H](N)C(=O)O)N[N+](=O)[O-]; assay: cells, lysate or membranes; conditions: other: oocytes, various concentrations; pH 7.5
# [7] = substrate: NC(=N[N+](=O)[O-])Nc1cccc([C@H](N)C(=O)O)c1; assay: cells, lysate or membranes; conditions: pH 7.5
# [8] = HRPE cells, radiolabeled substrate
molecule,measurement,setting,value
"C[N+](C)(C)CC(O)CC(=O)[O-] (stereo not drawn) [carnitine, β-hydroxy-γ-trimethylaminobutyrate]",Hill coefficient for Na+ activation of substrate transport,"mouse ATB^0,+ [1]; HRPE cells",1.6±0.1
same,K0.5 for Na+ in substrate transport,"mouse ATB^0,+ [1]; HRPE cells",54 ± 4 mM
same,"Vmax of ATB^0,+-mediated transport","mouse ATB^0,+ [1]; HRPE cells",72±2 nmol/10^6 cells/15 min
same,"Michaelis-Menten constant (Kt) of transport via mouse ATB^0,+","mouse ATB^0,+ [1]; [8]",0.83 ± 0.08 mM
same,"transport in ATB^0,+ cDNA-transfected cells compared to vector-transfected cells","mouse ATB^0,+ [1]; [8]",16 fold
same,reduction of transport on removal of Cl− (gluconate),"mouse ATB^0,+ [1]; carnitine 15 μM, HRPE cells",~60%
same,transport when Na+ substituted with N-methyl-D-glucamine,"mouse ATB^0,+ [1]; carnitine 15 μM, HRPE cells",completely abolished
same,"Kt of ATB^0,+ (discussion summary)","mouse ATB^0,+ [1]; summary of HRPE cell and oocyte values",1 to 2 mM
same,induced inward currents,"mouse ATB^0,+ [2]; 10 mM carnitine, esters under similar conditions",~300 nA
same,Hill coefficient (nH) for Cl− activation of substrate-induced currents,"mouse ATB^0,+ [2]; oocytes, carnitine 1 mM",0.9±0.2
same,Hill coefficient (nH) for Na+ activation of substrate-induced currents,"mouse ATB^0,+ [2]; oocytes, carnitine 1 mM",1.9±0.5
same,K0.5 for Cl− of substrate-induced currents,"mouse ATB^0,+ [2]; oocytes, carnitine 1 mM",15 ± 5 mM
same,K0.5 for Na+ of substrate-induced currents,"mouse ATB^0,+ [2]; oocytes, carnitine 1 mM",25 ± 4 mM
same,K0.5 (concentration inducing half-maximal current; Michaelis-Menten constant),"mouse ATB^0,+ [2]; oocytes, membrane potential −50 mV",1.8 ± 0.4 mM
same,Kt of OCTN2,OCTN2,5 to 15 µM
same,IC50,"mouse ATB^0,+ [3]",600 ± 100 µM
"N[C@H](C(=O)O)c1ccccc1 [Phenylglycine, L-phenylglycine]","transport in ATB^0,+-expressing cells versus vector-transfected cells (in words)","mouse ATB^0,+ [1]; HRPE cells, [14C]phenylglycine 10 μM or [8-3H]-valacyclovir 1.25 μM",three times higher
same,"cDNA-specific transport by ATB^0,+ relative to ATB^0 and mb^0,+AT","mouse ATB^0,+ [1]; [14C]phenylglycine 10 μM, HRPE cells",ten times higher
same,inhibition,"mouse ATB^0,+ [4]",100%
same,Ki,"mouse ATB^0,+ [5]",5.3 ± 0.4 µM
same,Ki,ATB^0,19 ± 5.5 µM
same,"affinity of ATB^0,+ relative to ATB^0","mouse ATB^0,+ [3]; from Ki values of Table 5",4 times
same,"affinity of ATB^0,+ relative to affinity for glycine","mouse ATB^0,+ [3]; from Ki values of Table 5",19 times
same,"affinity of ATB^0,+ relative to affinity for phenylalanine","mouse ATB^0,+ [3]; from Ki values of Table 5",13 times
same,"affinity of ATB^0,+ relative to b^0,+AT","mouse ATB^0,+ [3]; from Ki values of Table 5",53 times
C[C@H](N)C(=O)O [Alanine],"Current in X. laevis oocytes (nA), L-isomer","mouse ATB^0,+ [2]; L-amino acid 1 mM, NaCl pH 7.5",650 ± 86 nA
same,Ki,"mouse ATB^0,+ [5]",101 ± 14.2 µM
same,Ki,ATB^0,22.5 ± 4.2 µM
lipopolysaccharide,"increase of ATB^0,+ mRNA versus saline-treated mice, colon","ATB^0,+ mRNA",2 fold
same,"increase of ATB^0,+ mRNA versus saline-treated mice, ileum","ATB^0,+ mRNA",7 fold
B1,Km,[6],348 ± 5 µM
same,Km,[7],106 ± 1 µM
